Test results as given in ChEMBL document CHEMBL1156829 (Proc Natl Acad Sci U S A, 2008).

How the values were obtained:
Plasmodium falciparum [1] = experiment: NOVARTIS: Inhibition of Plasmodium falciparum 3D7 (drug-susceptible) proliferation in erythrocyte-based infection assay; assay type: functional, organism-based; conditions: Plasmodium falciparum, 3D7
Plasmodium falciparum [2] = experiment: NOVARTIS: Inhibition of Plasmodium falciparum W2 (drug-resistant) proliferation in erythrocyte-based infection assay; assay type: functional, organism-based; conditions: Plasmodium falciparum, W2; read-out: EC50
[3] = NOVARTIS: Cytotoxicity against human hepatocellular carcinoma cell line (Huh7); assay type: toxicity, cell-based, Huh-7; conditions: Huh7 cells (hepatocellular carcinoma cell line)

Row | SMILES | EC50 (Plasmodium falciparum [1]) | EC50 (Plasmodium falciparum [2]) | CC50 [3]
1 | CCN1/C(=C/c2sc3ccc(I)cc3[n+]2CC)C=Cc2ccccc21 | 0.55 µM | 0.364 µM | > 10 µM
2 | O=C(C1CC1)N1CCN=C1SCc1ccc(C(F)(F)F)cc1 | 6.08 µM | > 3.7 µM | > 100 µM
3 | COCCCNC(=O)C=Cc1ccc(C(C)C)cc1 | 5.94 µM | 3.58 µM | > 100 µM
4 | CCOc1ccc(CN2CCN(CC(O)COc3ccc(OCC(O)CN4CCN(Cc5ccc(OCC)cc5)CC4)cc3)CC2)cc1 (configuration not stated) | 1.37 µM | 2.68 µM | 73.7 µM
5 | CCN(CC)CCCC(C)Nc1ccnc2ccc(-c3ccccc3)cc12 (configuration not stated) | 0.264 µM | 0.359 µM | > 10 µM
6 | Cc1cc(-c2cnc(C)nc2C2CCN(C(=O)c3ccc4ncccc4c3)CC2)on1 | > 0.917 µM | 0.42 µM | > 11.6 µM
7 | CN(CCCNc1ccnc2cc(Cl)ccc12)S(=O)(=O)c1ccc2ccccc2c1 | 0.282 µM | 0.201 µM | > 5.54 µM
8 | CCCCCCCCCC(=O)N(C)CCCNc1ccnc2cc(Cl)ccc12 | 0.126 µM | 0.206 µM | 5.71 µM
9 | CCCCN(C)C(=O)CSc1nc(NCc2ccccc2)c2ccccc2n1 | > 1.65 µM | 0.361 µM | > 10 µM
10 | Cn1nc(C(=O)Nc2ccc(F)c(Cl)c2)c2c1-c1ccccc1S(=O)(=O)C2 | > 12.5 µM | 3.61 µM | > 100 µM
11 | CN(C)CCNc1ncc(C(=O)NCc2ccccc2)c(NCCc2ccccc2)n1 | 0.475 µM | 0.361 µM | > 10 µM
12 | O[C@@H]1[C@H]2c3cc4c(cc3CN3CCC(=C[C@@H]1O)[C@H]23)OCO4 | 0.0465 µM | 0.361 µM | > 10 µM
13 | O=C(NCC1(c2ccccc2)CCCC1)C(=O)Nc1nncs1 | > 0.806 µM | > 0.36 µM | > 10 µM
14 | COC(=O)c1c(S(=O)(=O)NCc2cccc(Cl)c2)sc2c1CCN(C(=O)C1CCCO1)C2 (configuration not stated) | > 0.608 µM | > 0.36 µM | > 10 µM
15 | CCC[P+](CCC)(CCC)CC1OCc2ccccc2CO1 | 1.8 µM | 3.6 µM | > 100 µM
16 | COc1ccc(C2CC(c3c(-c4ccccc4)c4cc(Cl)ccc4[nH]c3=O)=NO2)cc1 (configuration not stated) | 0.624 µM | > 0.359 µM | > 10 µM
17 | O=C(Nc1ccc(SC(F)(F)F)cc1)Nc1cccnc1N1CCC(C(F)(F)F)CC1 | 1.77 µM | 1.42 µM | 39.7 µM
18 | FC(F)(F)c1cccc(NC(=S)N2CCCC2c2ccncc2)c1 (configuration not stated) | 0.327 µM | 0.37 µM | > 10 µM
19 | O=C(NCc1ccccc1)c1cnc(NCCCn2ccnc2)nc1Nc1ccccc1 | 0.611 µM | 0.369 µM | > 10 µM
20 | OC(CCNC1CCCCC1)COc1cccc2ccccc12 (configuration not stated) | 0.789 µM | 0.366 µM | > 10 µM
21 | CCC(C)NC(=O)c1c[nH]c2ccc(S(=O)(=O)N(C)c3cc(C)ccc3C)cc2c1=O (configuration not stated) | 5.22 µM | 2.17 µM | 59.3 µM
22 | CC1CCCN(C(=O)C2CCN(Cc3ccccn3)CC2)C1 (configuration not stated) | > 9.14 µM | 3.58 µM | > 100 µM
23 | CCOC(=O)c1cnc2ccc(OC)cc2c1NCc1cccs1 | 5.9 µM | 3.72 µM | > 100 µM
24 | c1ccc(-c2cc(N3CCOCC3)nc(-c3ccccn3)n2)nc1 | 0.907 µM | 0.372 µM | > 10 µM
25 | O=C1N(Cc2cc3ccccc3s2)CC2CN(Cc3ccccc3)CCN12 (configuration not stated) | 0.436 µM | 0.372 µM | > 10 µM
26 | O=C1C(=Nc2cccc(C(F)(F)F)c2)c2ccccc2N1CN1CCc2ccccc2C1 | 8.38 µM | 3.71 µM | > 100 µM
27 | CC1=CC(=C(C#N)c2nc3ccccc3s2)C=C(C)N1c1ccc2c(c1)OCO2 | 1.04 µM | 3.71 µM | > 100 µM

Row | SMILES | EC50 (Plasmodium falciparum [1]) | EC50 (Plasmodium falciparum [2]) | CC50 [3]
28 | CCOC(=O)c1cnc2ccc3c(c(C)c(C)n3C)c2c1O | 0.37 µM | 0.37 µM | > 10 µM
29 | CCN(CC)CCCN(Cc1cc2cc(OC)c(OC)cc2[nH]c1=O)C(=S)Nc1cccc(Cl)c1 | 0.698 µM | 0.707 µM | 18.9 µM
30 | N#CC(C#N)C(C(Sc1ccc([N+](=O)[O-])cc1)=C(O)c1ccccc1)c1cccs1 (configuration not stated) | 1.35 µM | 0.661 µM | 17.7 µM
31 | Cn1c(=O)n(C)c2cc(NC(=O)CCl)ccc21 | 1.47 µM | 0.444 µM | 12.2 µM
32 | CCOC(=O)c1sc2ncnc(NCc3ccc(F)cc3)c2c1C | > 12.5 µM | > 3.63 µM | > 100 µM
33 | O=C1CN(C(=O)c2cc([N+](=O)[O-])c(N3CCCCC3)c([N+](=O)[O-])c2N2CCCCC2)c2ccccc2N1 | 2.19 µM | 1.83 µM | 50.4 µM
34 | COc1cc2c(cc1OC)-c1cc3ccc4c(c3c[n+]1CC2)OCO4 | 0.103 µM | 0.233 µM | > 6.25 µM
35 | COC(=O)C1=C(C)NC(=Cc2cc(C)n(-c3cc(Cl)ccc3Cl)c2C)C1=O | 0.711 µM | 3.68 µM | > 100 µM
36 | CCN1/C(=C\C=C2/SC(=S)N(c3ccccc3)C2=O)C(C)(C)c2cc(-c3ccccc3)ccc21 | 0.129 µM | 0.318 µM | > 8.66 µM
37 | Brc1ccc2ncnc(NCC3CCCO3)c2c1 (configuration not stated) | > 12.5 µM | 3.75 µM | > 100 µM
38 | c1cncc(-c2ncc(-c3cnccn3)c(-c3cccnc3)n2)c1 | > 1.25 µM | > 0.374 µM | > 10 µM
39 | Cc1ccc(C2CC(C(F)(F)F)n3ncc(C(=O)Nc4ccc(Cl)cc4)c3N2)cc1 (configuration not stated) | 2.87 µM | 3.44 µM | 95 µM
40 | Cc1cc(C)cc(NC(=O)CCCn2c3ccccc3c(=O)c3cc(C)ccc32)c1 | 4.28 µM | 3.61 µM | > 100 µM
41 | O=C(Nc1ccc(-c2nc3cc(NC(=O)C(c4ccccc4)c4ccccc4)ccc3[nH]2)cc1)C(c1ccccc1)c1ccccc1 | 4.45 µM | 3.68 µM | > 100 µM
42 | CC(C)CNC(=O)c1cc(NC(=O)c2cccs2)ccc1N1CCc2ccccc2C1 | 0.349 µM | 0.0327 µM | 0.893 µM
43 | CCCC[n+]1c(-c2ccccc2)cc(-c2ccccc2)cc1-c1ccccc1 | 0.824 µM | 0.467 µM | 12.9 µM
44 | COc1cccc(Nc2nc(NCC3CCCO3)c3ccccc3n2)c1 (configuration not stated) | 0.23 µM | 0.286 µM | 7.67 µM
45 | O=C1CCC2C3C=CC(C3)C12 (configuration not stated) | 1.78 µM | 0.447 µM | > 12.4 µM
46 | Cc1cc(Nc2ccc(I)cc2)n2ncnc2n1 | 1.56 µM | 3.59 µM | > 100 µM
47 | CCC(c1nc2ccccc2c(=O)n1-c1ccccc1OC)N(CCc1ccccc1)C(=O)Nc1ccccc1OC (configuration not stated) | 1.03 µM | 0.366 µM | > 10 µM
48 | CC1(C)N=C(N)N=C(N)N1c1ccc(F)cc1 | 0.0218 µM | 1.86 µM | 51 µM
49 | C=C[C@H]1CN2CC[C@H]1C[C@@H]2[C@@H](OC(=O)CC)c1ccnc2ccccc12 | 0.22 µM | 0.37 µM | > 10 µM
50 | O=C1C2C3c4ccccc4C(c4ccccc43)C2C(=O)N1CCO (configuration not stated) | > 12.5 µM | 3.7 µM | > 100 µM
51 | O=c1c(NCc2ccco2)nc2cc(Cl)ccc2n1CCNc1ncc(C(F)(F)F)cc1Cl | 0.81 µM | 2.33 µM | 63.8 µM
52 | COC(=O)c1sc(-c2ccccc2)cc1NC(=O)c1ccc(S(=O)(=O)N2CCCCCC2)cc1 | > 1.25 µM | > 0.506 µM | > 14.1 µM
53 | Cn1cc(S(=O)(=O)c2cccc(Cl)c2)c(=O)c2cc(F)c(N3CCCCC3)cc21 | 1.03 µM | > 0.372 µM | > 10 µM
54 | CC1=C(CC(=O)c2cccs2)C(=O)c2ccccc2C1=O | 1.24 µM | 0.29 µM | 7.75 µM
